Measured values from DBAASP.
In brackets after ≈: the same amount, converted by molar mass.

What was measured:
Test in all cases: ≥ marks a high value that may be exact or a test limit, other limits are often not marked, values filed in µg/mL are converted to µM
Saccharomyces cerevisiae = system: Saccharomyces cerevisiae
Escherichia coli = system: Escherichia coli
[1] = system: Staphylococcus epidermidis
[2] = system: Escherichia coli O157:H7 ATCC 43895
[3] = system: Aspergillus flavus KCTC 9471
Proteus vulgaris = system: Proteus vulgaris
Pseudomonas aeruginosa = system: Pseudomonas aeruginosa
[4] = system: Candida albicans KCTC 7270
Salmonella typhimurium = system: Salmonella typhimurium
Fusarium verticillioides = system: Fusarium verticillioides
Bacillus subtilis = system: Bacillus subtilis
[5] = system: Aspergillus fumigatus KCTC 6145
Botrytis cinerea = system: Botrytis cinerea
[6] = system: Listeria monocytogenes KCTC 3710
Staphylococcus aureus = system: Staphylococcus aureus
Trichosporon beigelii = system: Trichosporon beigelii
[7] = system: Bacillus subtilis ATCC 6051
[8] = system: Klebsiella pneumoniae ATCC 13883
[9] = system: Acinetobacter baumannii ATCC 19606
[10] = system: Escherichia coli ATCC 25922
[11] = system: Candida albicans ATCC 90028
[12] = system: Staphylococcus aureus ATCC 43300
[13] = system: Klebsiella pneumoniae ATCC 700603
[14] = system: Klebsiella pneumoniae ATCC BAA-2146
[15] = system: Pseudomonas aeruginosa ATCC 27853
[16] = system: Cryptococcus neoformans ATCC 208821
Acinetobacter baumannii = system: Acinetobacter baumannii
Klebsiella pneumoniae = system: Klebsiella pneumoniae
[17] = system: Streptococcus mutans UA159
[18] = system: Streptococcus mutans GS-5
[19] = system: Streptococcus sanguinis ATCC 49295
[20] = system: Streptococcus gordonii ATCC 10558
[21] = system: Escherichia coli K-12 594
[22] = system: Staphylococcus aureus ATCC 6538P
[23] = system: Staphylococcus aureus SR1550
[24] = system: Xanthomonas vesicatoria 2133-2
[25] = system: Rhizopus stolonifer CECT 2344
[26] = system: Pseudomonas syringae EPS 94
[27] = system: Erwinia amylovora PMV 6076
[28] = system: Fusarium oxysporum f. sp. lycopersici ATCC 201829
[29] = system: Aspergillus niger CECT 2694
[30] = system: Penicillium expansum EPS 26
Vibrio alginolyticus = system: Vibrio alginolyticus
Vibrio fluvialis = system: Vibrio fluvialis
Vibrio parahaemolyticus = system: Vibrio parahaemolyticus
Streptococcus pyogenes = system: Streptococcus pyogenes
Aeromonas hydrophila = system: Aeromonas hydrophila

**Q.** How did the MIC (Saccharomyces cerevisiae) turn out when CC[C@H](C)[C@H](NC(=O)[C@H](CCCCN)NC(=O)[C@H](CO)NC(=O)[C@H](Cc1ccccc1)NC(=O)[C@H](CC(C)C)NC(=O)[C@H](CCCCN)NC(=O)[C@H](CCC(=O)O)NC(=O)[C@H](CC(C)C)NC(=O)[C@H](CCCN=C(N)N)NC(=O)[C@H](CCCCN)NC(=O)[C@H](Cc1ccccc1)NC(=O)[C@@H](NC(=O)[C@H](CCCCN)NC(=O)[C@H](CCCCN)NC(=O)[C@H](C)N)C(C)C)C(=O)N[C@@H](Cc1ccc(O)cc1)C(=O)N[C@@H](CC(N)=O)C(=O)N[C@@H](Cc1ccc(O)cc1)C(=O)N[C@@H](CCCCN)C(N)=O [AKKVFKRLEKLFSKIYNYK] was run?
**A.** 25 µM (≈ 60.1 µg/mL)

**Q.** And the MIC (Escherichia coli)?
**A.** 3.13 µM (≈ 7.52 µg/mL)

**Q.** What about the MIC [1] of the same compound?
**A.** 3.13 µM (≈ 7.52 µg/mL)

**Q.** What about the MIC [2] of the same compound?
**A.** 3.13 µM (≈ 7.52 µg/mL)

**Q.** What about the MIC [3] of the same compound?
**A.** ≥ 50 µM

**Q.** What about the MIC (Proteus vulgaris) of the same compound?
**A.** 4.42 µM (≈ 10.6 µg/mL)

**Q.** What about the MIC (Pseudomonas aeruginosa) of the same compound?
**A.** 3.13 µM (≈ 7.52 µg/mL)

**Q.** What about the MIC [4] of the same compound?
**A.** 12.5 µM (≈ 30 µg/mL)

**Q.** What about the MIC (Salmonella typhimurium) of the same compound?
**A.** 0.39 µM (≈ 0.937 µg/mL)

**Q.** And the MIC (Fusarium verticillioides)?
**A.** 12.5 µM (≈ 30 µg/mL)

**Q.** And the MIC (Bacillus subtilis)?
**A.** 1.56 µM (≈ 3.75 µg/mL)

**Q.** What about the MIC [5] of the same compound?
**A.** ≥ 35.4 µM

**Q.** And the MIC (Botrytis cinerea)?
**A.** 6.25 µM (≈ 15 µg/mL)

**Q.** And the MIC [6]?
**A.** 0.78 µM (≈ 1.87 µg/mL)

**Q.** What about the MIC (Staphylococcus aureus) of the same compound?
**A.** 3.13 µM (≈ 7.52 µg/mL)

**Q.** And the MIC (Trichosporon beigelii)?
**A.** 1.56 µM (≈ 3.75 µg/mL)

**Q.** What does the source list for CC[C@H](C)[C@@H]1NC(=O)CNC(=O)[C@H](CCCN=C(N)N)NC(=O)[C@H](Cc2ccc(O)cc2)NC(=O)[C@H](C)NC(=O)[C@H](C(C)C)NC(=O)[C@H](CCCN=C(N)N)NC(=O)[C@H](Cc2ccccc2)NC(=O)[C@@H](NC(=O)[C@H](Cc2c[nH]c3ccccc23)NC(=O)[C@@H](N)CCCCN)CSSC[C@@H](C(=O)N[C@@H](CCCN=C(N)N)C(=O)O)NC(=O)[C@H](CCCN=C(N)N)NC(=O)[C@H](CCCN=C(N)N)NC(=O)[C@H](Cc2ccc(O)cc2)NC(=O)[C@H](C)NC1=O [KWCFRVAYRGIAYRRCR]?
**A.** MIC [7]: 0.0567 µM (≈ 0.125 µg/mL); MIC [8]: 0.113 µM (≈ 0.25 µg/mL); MIC [9]: 0.113 µM (≈ 0.25 µg/mL); MIC [10]: 0.0567 µM (≈ 0.125 µg/mL); MIC [11]: 3.63 µM (≈ 7.99 µg/mL); MIC (Pseudomonas aeruginosa): 0.907 µM (≈ 2 µg/mL); MIC [12]: 0.907 µM (≈ 2 µg/mL); MIC [13]: 0.907 µM (≈ 2 µg/mL); MIC [14]: 0.454 µM (≈ 0.999 µg/mL); MIC [15]: 0.454 µM (≈ 0.999 µg/mL); MIC [16]: 0.454 µM (≈ 0.999 µg/mL); MIC (Acinetobacter baumannii): 0.113 µM (≈ 0.25 µg/mL); MIC (Klebsiella pneumoniae): 7.26 µM (≈ 16 µg/mL)

**Q.** Which results are given for CC(C)C[C@H](NC(=O)[C@H](CCCN=C(N)N)NC(=O)[C@H](Cc1ccccc1)NC(=O)[C@H](Cc1ccccc1)NC(=O)[C@@H](N)[C@@H](C)O)C(=O)N[C@@H](Cc1ccccc1)C(=O)N[C@@H](CC(N)=O)C(=O)N[C@@H](CCCN=C(N)N)C(=O)N[C@@H](CO)C(=O)N[C@@H](Cc1ccccc1)C(=O)N[C@H](C(=O)O)[C@@H](C)O [TFFRLFNRSFT]?
**A.** MIC [17]: ≥ 178 µM; MIC [18]: ≥ 178 µM; MIC [19]: ≥ 178 µM; MIC [20]: ≥ 178 µM

**Q.** Which MIC [21] does the source give for CC(C)C[C@H](NC(=O)[C@H](CCCN=C(N)N)NC(=O)[C@H](CC(C)C)NC(=O)[C@H](CC(C)C)NC(=O)[C@H](CC(C)C)NC(=O)[C@H](CC(C)C)NC(=O)[C@H](CC(C)C)NC(=O)[C@H](CCCN=C(N)N)NC(=O)[C@H](CC(C)C)NC(=O)[C@@H](N)CCCN=C(N)N)C(=O)N[C@@H](CCCN=C(N)N)C(N)=O [RLRLLLLLRLR] here?
**A.** 24.4 µM (≈ 35 µg/mL)

**Q.** And the MIC [22]?
**A.** 1.39 µM (≈ 2 µg/mL)

**Q.** And the MIC [23]?
**A.** 24.4 µM (≈ 35 µg/mL)

**Q.** CC[C@H](C)[C@H](NC(=O)[C@H](CCCCN)NC(=O)[C@H](CCCCN)NC(=O)[C@H](Cc1ccccc1)NC(=O)[C@H](CC(C)C)NC(=O)[C@H](CCCCN)NC(=O)[C@@H](N)CC(C)C)C(=O)N[C@@H](CC(C)C)C(=O)N[C@@H](CCCCN)C(=O)N[C@H](C(=O)N[C@@H](CC(C)C)C(N)=O)C(C)C [LKLFKKILKVL] was tested. Which MIC [24] did it give?
**A.** 11 µM (≈ 14.7 µg/mL)

**Q.** And the MIC [25]?
**A.** ≥ 35.4 µM

**Q.** What about the MIC [26] of the same compound?
**A.** 5.92 µM (≈ 7.94 µg/mL)

**Q.** What about the MIC [27] of the same compound?
**A.** 5.92 µM (≈ 7.94 µg/mL)

**Q.** And the MIC [28]?
**A.** 0.424 µM (≈ 0.569 µg/mL)

**Q.** And the MIC [29]?
**A.** 22.4 µM (≈ 30 µg/mL)

**Q.** And the MIC [30]?
**A.** ≥ 35.4 µM

**Q.** How did the MIC (Vibrio alginolyticus) turn out when CC[C@H](C)[C@H](NC(=O)[C@H](CC(N)=O)NC(=O)[C@H](CC(=O)O)NC(=O)[C@H](Cc1ccc(O)cc1)NC(=O)[C@@H](NC(=O)[C@H](CCCCN)NC(=O)[C@H](Cc1cnc[nH]1)NC(=O)[C@H](CC(C)C)NC(=O)[C@H](CC(C)C)NC(=O)[C@H](Cc1ccccc1)NC(=O)[C@H](CC(N)=O)NC(=O)[C@@H](N)C(C)C)[C@@H](C)CC)C(=O)N[C@@H](CCCN=C(N)N)C(=O)N[C@@H](Cc1ccc(O)cc1)C(=O)N[C@@H](CO)C(=O)O [VNFLLHKIYDNIRYS] was run?
**A.** ≥ 132 µM

**Q.** What about the MIC (Escherichia coli) of the same compound?
**A.** 4.12 µM (≈ 7.8 µg/mL)

**Q.** And the MIC (Vibrio fluvialis)?
**A.** ≥ 132 µM

**Q.** And the MIC (Vibrio parahaemolyticus)?
**A.** ≥ 33 µM

**Q.** And the MIC (Streptococcus pyogenes)?
**A.** ≥ 33 µM

**Q.** What about the MIC (Aeromonas hydrophila) of the same compound?
**A.** 8.23 µM (≈ 15.6 µg/mL)

**Q.** And the MIC (Staphylococcus aureus)?
**A.** > 132 µM
